Patent US11767323B2, “Tricyclic pyridone compounds as JAK2 V617F inhibitors” (Incyte Corporation, priority 2020, dated 2023)

Key:
[1] = biological target: catalytic domain (JH1, amino acids 826-1132) of human JAK2 (Homo sapiens (Human), UniProt O60674); assay: JAK2 LanthaScreen JH1 Binding Assay; settings: JAK2 JH1 1.5 nM, 50 nM tracer, 2 hours at 25° C.; read-out: JH1 BIND IC50
Procedure: Example A. JAK2 LanthaScreen JH1 Binding Assay
JAK2 JH1 binding assay utilizes catalytic domain (JH1, amino acids 826-1132) of human JAK2 expressed as N-terminal FLAG-tagged, biotinylated protein in a baculovirus expression system (Carna Biosciences, Product #08-445-20N). The assay was conducted in black 384-well polystyrene plates in a final reaction volume of 20 μL. JAK2 JH1 (1.5 nM) was incubated with compounds (100 nL serially diluted in DMSO) in the presence of 50 nM Fluorescent JAK2-JH1 Tracer and 0.5 nM Streptavidin-Tb cryptate (Cisbio Part #610SATLB) in assay buffer (50 mM Tris, pH=7.5, 10 mM MgCl2, 0.01% Brij-35, 0.1% BSA, 1 mM EGTA, 5% Glycerol and 5 mM DTT). Non-specific binding was accessed in the presence of 2 mM ATP. After incubation for 2 hours at 25° C., LanthaScreen signals were read on a PHERAstar FS plate reader (BMG LABTECH). Data was analyzed with IDBS XLfit and GraphPad Prism 5.0 software using a four parameter dose response curve to determine IC50 for each compound.

[2] = biological target: pseudo-kinase domain (JH2, amino-acids 536-812) of human Wild Type JAK2 (Homo sapiens (Human), UniProt O60674, F794H/W659A/W777A); assay: JAK2 LanthaScreen JH2-WT Binding Assay; settings: JAK2 JH2-WT 0.145 nM, 50 nM tracer, 1 hour at 25° C.; read-out: JH2 BIND WT IC50
Chain of pseudo-kinase domain (JH2, amino-acids 536-812) of human Wild Type JAK2 (O60674 536-812 W659A/W777A/F794H): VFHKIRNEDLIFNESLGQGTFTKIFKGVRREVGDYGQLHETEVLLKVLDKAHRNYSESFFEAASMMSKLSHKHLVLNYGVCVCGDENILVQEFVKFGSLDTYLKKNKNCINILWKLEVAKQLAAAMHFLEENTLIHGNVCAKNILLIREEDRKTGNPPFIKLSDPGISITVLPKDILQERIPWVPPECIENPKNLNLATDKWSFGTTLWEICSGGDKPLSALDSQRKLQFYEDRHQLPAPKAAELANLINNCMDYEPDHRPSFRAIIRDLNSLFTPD
Procedure: Example B. JAK2 LanthaScreen JH2-WT Binding Assay
(§1) JAK2 JH2-WT binding assay utilizes pseudo-kinase domain (JH2, amino-acids 536-812 with 3 surface mutations W659A, W777A, F794H) of human Wild Type JAK2 expressed as C-terminal His-Avi-tagged, biotinylated protein in a baculovirus expression system (BPS Bioscience, Catalog #79463). The assay was conducted in black 384-well polystyrene plates in a final reaction volume of 20 μL. JAK2 JH2-WT (0.145 nM) was incubated with compounds (100 nL serially diluted in DMSO) in the presence of 50 nM Fluorescent JAK2-JH2 Tracer (MedChem Express Catalog #HY-102055) and 0.25 nM Streptavidin-Tb cryptate (Cisbio Part #610SATLB) in assay buffer (50 mM Tris, pH=7.5, 10 mM MgCl2, 0.01% Brij-35, 0.1% BSA, 1 mM EGTA, 5% Glycerol and 5 mM DTT). Non-specific binding was accessed in the presence of 2 mM ATP. After incubation for 1 hour at 25° C., LanthaScreen signals were read on a PHERAstar FS plate reader (BMG LAB TECH). Data was analyzed with IDBS XLfit and GraphPad Prism 5.0 software using a four parameter dose response curve to determine IC50 for each compound.

[3] = biological target: pseudo-kinase domain (JH2, amino-acids 536-812) of human V617F mutant JAK2 (Homo sapiens (Human), UniProt O60674, F794H/V617F/W659A/W777A); assay: JAK2 LanthaScreen JH2-V617F Binding Assay; settings: JAK2 JH2-V617F 0.26 nM, 50 nM tracer, 1 hour at 25° C.; read-out: JH2 BIND V617F IC50
Chain of pseudo-kinase domain (JH2, amino-acids 536-812) of human V617F mutant JAK2 (O60674 536-812 V617F/W659A/W777A/F794H): as the sequence (O60674 536-812 W659A/W777A/F794H) above, with V82F counted along it
Procedure: Example C. JAK2 LanthaScreen JH2-V617F Binding Assay
as §1, with “JH2-V617F” for “JH2-WT”, “V617F mutant” for “Wild Type”, “#79498).” for “#79463).”, “JH2-V617F (0.26” for “JH2-WT (0.145”, “LABTECH).” for “LAB TECH).”

[4] = biological target: catalytic domain (JH1, amino acids 808-1132) of human JAK2 (Homo sapiens (Human), UniProt O60674); assay: JAK2 HTRF Enzyme Activity Assay; format: biochemical; settings: JAK2 0.015 nM, ATP (30 μM or 1 mM), 60 minutes at 25° C.
Chain of catalytic domain (JH1, amino acids 808-1132) of human JAK2 (O60674 808-1132): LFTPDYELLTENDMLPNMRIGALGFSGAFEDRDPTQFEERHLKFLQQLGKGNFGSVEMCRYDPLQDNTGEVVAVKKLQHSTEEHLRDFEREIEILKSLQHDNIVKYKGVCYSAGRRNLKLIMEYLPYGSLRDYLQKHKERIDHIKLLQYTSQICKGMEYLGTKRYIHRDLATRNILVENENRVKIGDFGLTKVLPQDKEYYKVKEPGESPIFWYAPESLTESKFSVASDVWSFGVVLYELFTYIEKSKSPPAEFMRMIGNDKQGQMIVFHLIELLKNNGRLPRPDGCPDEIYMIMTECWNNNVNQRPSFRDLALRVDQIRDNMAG
Procedure: Example D. JAK2 HTRF Enzyme Activity Assay
JAK2 enzyme activity assays utilize catalytic domain (JH1, amino acids 808-1132) of human JAK2 expressed as N-terminal His-tagged protein in a baculovirus expression system (BPS Bioscience, Catalog #40450). The assays was conducted in black 384-well polystyrene plates in a final reaction volume of 20 μL. JAK2 (0.015 nM) was incubated with compounds (100 nL serially diluted in DMSO) in the presence of ATP (30 μM or 1 mM) and 500 nM Biotin-labeled EQEDEPEGDYFEWLE (SEQ ID NO.: 1) peptide (BioSource International, custom synthesis) in assay buffer (50 mM Tris, pH=7.5, 10 mM MgCl2, 0.01% Brij-35, 0.1% BSA, 1 mM EGTA, 5% Glycerol and 5 mM DTT) for 60 minutes at 25° C. The reactions were stopped by the addition of 10 μL of detection buffer (50 mM Tris, pH 7.8, 0.5 mg/mL BSA, 150 mM NaCl), supplemented with EDTA, LANCE Eu-W1024 anti-phosphotyrosine (PY20), (PerkinElmer, Catalog #AD0067) and Streptavidin SureLight APC (PerkinElmer Catalog #CR130-100), for a final concentration of 15 mM, 1.5 nM and 75 nM, respectively. HTRF signals were read after 30 minutes incubation at room temperature on a PHERAstar FS plate reader (BMG LAB TECH). Data was analyzed with IDBS XLfit and GraphPad Prism 5.0 software using a four parameter dose response curve to determine IC50 for each compound.

Chain of catalytic domain (JH1, amino acids 826-1132) of human JAK2 (O60674 826-1132): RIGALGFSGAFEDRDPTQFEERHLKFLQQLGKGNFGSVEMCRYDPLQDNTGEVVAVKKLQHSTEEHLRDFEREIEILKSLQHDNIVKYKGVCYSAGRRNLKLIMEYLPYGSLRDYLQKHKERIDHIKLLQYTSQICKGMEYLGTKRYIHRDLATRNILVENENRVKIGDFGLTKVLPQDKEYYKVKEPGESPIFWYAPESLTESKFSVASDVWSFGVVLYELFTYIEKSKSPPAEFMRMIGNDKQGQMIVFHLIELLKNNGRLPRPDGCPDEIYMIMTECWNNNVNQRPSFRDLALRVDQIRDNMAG

## Cc1cc(-c2c(C3CCN(S(C)(=O)=O)C3)c3c4cc(-c5cnn(C)c5)[nH]c4ncc3n(C)c2=O)on1 (stereo not drawn) [Example 33, 6-Methyl-2-(1-methyl-1H-pyrazol-4-yl)-8-(3-methylisoxazol-5-yl)-9-(1-(methylsulfonyl)pyrrolidin-3-yl)-3,6-dihydro-7H-pyrrolo[3,2-f][1,7]naphthyridin-7-one]
[1]
  IC50: 100 to 500 nM
[2]
  IC50: ≤ 100 nM
[3]
  IC50: ≤ 100 nM
[4]
  IC50: 100 to 500 nM

## Cc1c(-c2ccc(C#N)cc2)c(=O)n(C)c2cnc3[nH]c(-c4ccc(CN5CCC(S(C)(=O)=O)CC5)cc4)cc3c12 [Example 13, 4-(6,9-Dimethyl-2-(4-((4-(methylsulfonyl)piperidin-1-yl)methyl)phenyl)-7-oxo-6,7-dihydro-3H-pyrrolo[3,2-f][1,7]naphthyridin-8-yl)benzonitrile]
[1]
  IC50: 100 to 500 nM
[2]
  IC50: ≤ 100 nM
[3]
  IC50: ≤ 100 nM
[4]
  IC50: 100 to 500 nM

## Cc1c(-c2ccc(Cl)cc2)c(=O)n(C)c2cnc3[nH]c(-c4ccc(CN5CCC(S(C)(=O)=O)CC5)cc4)cc3c12 [Example 10, 8-(4-Chlorophenyl)-6,9-dimethyl-2-(4-((4-(methylsulfonyl)piperidin-1-yl)methyl)phenyl)-3,6-dihydro-7H-pyrrolo[3,2-f][1,7]naphthyridin-7-one]
[1]
  IC50: 100 to 500 nM
[2]
  IC50: ≤ 100 nM
[3]
  IC50: ≤ 100 nM
[4]
  IC50: 100 to 500 nM

## CS(=O)(=O)C1CCN(Cc2ccc(-c3cc4c(ncc5[nH]c(=O)c(C#N)cc54)[nH]3)cc2)CC1 [Example 3, 2-(4-((4-(Methylsulfonyl)piperidin-1-yl)methyl)phenyl)-7-oxo-6,7-dihydro-3H-pyrrolo[3,2-f][1,7]naphthyridine-8-carbonitrile]
[1]
  IC50: > 10000 nM
[2]
  IC50: 1000 to 10000 nM
[3]
  IC50: 1000 to 10000 nM
[4]
  IC50: > 10000 nM

## Cc1c(-c2ccc3c(c2)OCCO3)c(=O)[nH]c2cnc3[nH]c(-c4ccc(CN5CCC(S(C)(=O)=O)CC5)cc4)cc3c12 [Example 19, 8-(2,3-Dihydrobenzo[6][1,4]dioxin-6-yl)-9-methyl-2-(4-((4-(methylsulfonyl)piperidin-1-yl)methyl)phenyl)-3,6-dihydro-7H-pyrrolo[3,2-f][1,7]naphthyridin-7-one]
[1]
  IC50: 1000 to 10000 nM
[2]
  IC50: 1000 to 10000 nM
[3]
  IC50: 1000 to 10000 nM
[4]
  IC50: 1000 to 10000 nM

## CN(C)C(=O)c1ccc(-c2c(-c3cnn(C)c3)[nH]c3ncc4c(cc(N5CCC6(CCOC6)CC5)c(=O)n4C)c23)cc1 [Example 41, N,N-dimethyl-4-(6-methyl-2-(1-methyl-1H-pyrazol-4-yl)-7-oxo-8-(2-oxa-8-azaspiro[4.5]decan-8-yl)-6,7-dihydro-3H-pyrrolo[3,2-f][1,7]naphthyridin-1-yl)benzamide]
[1]
  IC50: 1000 to 10000 nM
[2]
  IC50: 100 to 500 nM
[3]
  IC50: 500 to 1000 nM
[4]
  IC50: 1000 to 10000 nM

## Cc1ccncc1-c1cc2c3c(-c4ccc(C(=O)N(C)C)cc4)c(-c4cnn(C)c4)[nH]c3ncc2n(C)c1=O [Example 36, N,N-dimethyl-4-(6-methyl-2-(1-methyl-1H-pyrazol-4-yl)-8-(4-methylpyridin-3-yl)-7-oxo-6,7-dihydro-3H-pyrrolo[3,2-f][1,7]naphthyridin-1-yl)benzamide]
[1]
  IC50: ≤ 100 nM
[2]
  IC50: ≤ 100 nM
[3]
  IC50: ≤ 100 nM
[4]
  IC50: ≤ 100 nM

## Cc1c(-c2cccc(Cl)c2)c(=O)n(C)c2cnc3[nH]c(-c4ccc(CN5CCC(S(C)(=O)=O)CC5)cc4)cc3c12 [Example 11, 8-(3-Chlorophenyl)-6,9-dimethyl-2-(4-((4-(methylsulfonyl)piperidin-1-yl)methyl)phenyl)-3,6-dihydro-7H-pyrrolo[3,2-f][1,7]naphthyridin-7-one]
[1]
  IC50: ≤ 100 nM
[2]
  IC50: ≤ 100 nM
[3]
  IC50: ≤ 100 nM
[4]
  IC50: ≤ 100 nM

## Cc1cc(-c2c(-c3ccc(CNC4CCCOC4)cc3)c3c4cc(-c5cnn(C)c5)[nH]c4ncc3n(C)c2=O)on1 (stereo not drawn) [Example 28, 6-Methyl-2-(1-methyl-1H-pyrazol-4-yl)-8-(3-methylisoxazol-5-yl)-9-(4-(((tetrahydro-2H-pyran-3-yl)amino)methyl)phenyl)-3,6-dihydro-7H-pyrrolo[3,2-f][1,7]naphthyridin-7-one]
[1]
  IC50: 100 to 500 nM
[2]
  IC50: ≤ 100 nM
[3]
  IC50: ≤ 100 nM
[4]
  IC50: 100 to 500 nM

## CC(=O)N1CC[C@H](c2cc3c4c(-c5ccccc5)c(-c5ccc(CN6CCC(S(C)(=O)=O)CC6)cc5)[nH]c4ncc3n(C)c2=O)C1 [Example 37, (R)-8-(1-acetylpyrrolidin-3-yl)-6-methyl-2-(4-((4-(methylsulfonyl)piperidin-1-yl)methyl)phenyl)-1-phenyl-3,6-dihydro-7/7-pyrrolo[3,2-f][1,7]naphthyridin-7-one]
[1]
  IC50: ≤ 100 nM
[2]
  IC50: ≤ 100 nM
[3]
  IC50: ≤ 100 nM
[4]
  IC50: ≤ 100 nM

## CCc1c(-c2ccc(C(=O)O)cc2)c(=O)n(C)c2cnc3[nH]c(-c4ccc(CN5CCC(S(C)(=O)=O)CC5)cc4)cc3c12 [Example 16, 4-(9-Ethyl-6-methyl-2-(4-((4-(methylsulfonyl)piperidin-1-yl)methyl)phenyl)-7-oxo-6,7-dihydro-3H-pyrrolo[3,2-f][1,7]naphthyridin-8-yl)benzoic acid]
[1]
  IC50: 100 to 500 nM
[2]
  IC50: ≤ 100 nM
[3]
  IC50: ≤ 100 nM
[4]
  IC50: 100 to 500 nM

## CN(C)C(=O)c1ccc(-c2c(-c3cnn(C)c3)[nH]c3ncc4c(cc(N5CCC(S(C)(=O)=O)CC5)c(=O)n4C)c23)cc1 [Example 39, N,N-dimethyl-4-(6-methyl-2-(1-methyl-1H-pyrazol-4-yl)-8-(4-(methylsulfonyl)piperidin-1-yl)-7-oxo-6,7-dihydro-3H-pyrrolo[3,2-f][1,7]naphthyridin-1-yl)benzamide]
[1]
  IC50: 100 to 500 nM
[2]
  IC50: ≤ 100 nM
[3]
  IC50: ≤ 100 nM
[4]
  IC50: 100 to 500 nM
